PubChem BioAssay (NCI)
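Exposure lasted 48 hours, with cells grown in 96-well plates and compounds tested at five concentrations. Here, GI50 denotes the concentration required for 50% inhibition of growth. TGI: concentration producing complete growth inhibition.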

Tests used:
Test in all cases: NCI-60 cell line screen, 48 h
[1] = test system: IGROV1 ovarian
[2] = test system: SK-MEL-28 melanoma
[3] = test system: NCI-H460 lung
[4] = test system: K-562 leukemia
[5] = test system: HCT-15 colon
[6] = test system: UACC-62 melanoma
[7] = test system: HOP-62 NSCLC
[8] = test system: DU-145 prostate
[9] = test system: KM12 colon
[10] = test system: UO-31 renal

Compound	GI50 [1] [µM]	TGI [1] [µM]	GI50 [2] [µM]	TGI [2] [µM]	GI50 [3] [µM]	TGI [3] [µM]	GI50 [4] [µM]	TGI [4] [µM]	GI50 [5] [µM]	TGI [5] [µM]	GI50 [6] [µM]	TGI [6] [µM]	GI50 [7] [µM]	TGI [7] [µM]	GI50 [8] [µM]	TGI [8] [µM]	GI50 [9] [µM]	TGI [9] [µM]	GI50 [10] [µM]	TGI [10] [µM]
N/C(=N/S(=O)(=O)c1cc(C(=O)Nc2ccc(F)cc2)c(Cl)cc1SCc1ccccc1)Nc1ccccc1O	1.88	3.57	2.14	4.33	2.93	8.29	1.33	3.64	37.1	> 100	1.84	3.43	2.04	4.52	1.83	3.56	1.79	3.33	17.3	37.4
Nc1nc(N)c(-c2ccc(Cl)c(Cl)c2)c(CP(Cl)(Cl)(Cl)Br)n1	8.92	61.8	20.6	> 100	1.58	> 100	2.79	> 100	4.26	> 100	6.4	32.2	72.7	> 100	9.33	> 100	14.3	> 100	17.5	> 100
CC(=O)/C=C/c1ccc(N(CCO)Cc2ccc(C(C)(C)C)cc2)cc1	112	260	58.8	201	39.9	144	–	–	27.8	124	46.6	176	104	231	73.2	206	39.6	155	22.5	122
CCSCCCC(=O)O	–	> 100	–	> 100	–	–	–	> 100	–	> 100	–	> 100	–	> 100	–	> 100	–	> 100	–	> 100
N#CC(C#N)=C1CCC2C(=C(C#N)C#N)CCC12 (stereo unspecified)	–	> 100	–	–	–	> 100	–	> 100	–	> 100	–	> 100	–	> 100	–	–	–	> 100	–	> 100
O=c1[nH]c(=O)n(C2OC(CO)C(O)C2O)cc1F (stereo unspecified)	–	3.12	0.0471	> 100	0.00463	1.01	0.018	> 100	0.0207	> 72.5	0.0515	7.56	–	8.59	–	> 100	0.0267	51.9	–	1.91
FC(F)(F)c1nc(Br)[nH]c1C(F)(F)F	–	> 100	–	> 100	–	> 100	–	> 100	–	> 100	–	> 100	–	91.9	–	–	–	> 100	–	> 100
CC(=O)[CH-]C(=O)c1ccccc1.CC(=O)[CH-]C(=O)c1ccccc1.CC(=O)[CH-]C(=O)c1ccccc1.[Br-].[Zr+4]	> 100	> 100	55.3	> 100	78.3	> 100	> 100	> 100	89.7	> 100	> 100	> 100	64	> 100	–	–	> 100	> 100	–	–
OCC1OC(n2cnc3c(NCc4ccccc4O)ncnc32)C(O)C1O (stereo unspecified)	0.649	10.5	4.15	> 100	8.57	46.3	0.634	> 100	0.432	–	1.27	24.2	2.33	18.2	0.224	> 32	5.23	> 100	0.717	13.8
Nc1cc(N)c2nc(-c3ccccc3)c(NCc3ccc(Cl)c(Cl)c3)nc2c1	1.97	5.95	18.8	41.7	20.8	46.9	3.09	17.8	4.64	> 100	14	30.8	15.7	31.9	16.2	33.4	3.42	21.3	4.17	> 100
Cc1ccc(NC2=CC(=O)C(=O)c3ccccc32)cc1	2.73	12.9	1.84	3.58	1.7	3.94	3.47	> 100	1.49	3.91	1.73	3.23	1.8	4.33	1.53	2.91	2.59	9.73	1.17	3.79
CC(C)(C)OC1=C(OC(C)(C)C)C(O)(c2ccc(Cl)cc2)C1=O (stereo unspecified)	–	> 100	–	> 100	–	> 100	–	> 100	–	> 100	–	> 100	–	–	–	–	–	> 100	–	> 100
C=C1C(C(=O)O)C1C(=O)O (stereo unspecified)	–	> 100	–	> 100	–	> 100	–	> 100	–	> 100	–	> 100	–	> 100	–	–	–	> 100	–	> 100
CCOC(=O)c1ccc(NC(=O)c2cccc(NC3=C(Cl)C(=O)N(Cc4ccccc4)C3=O)c2)cc1	65	> 100	> 100	> 100	> 100	> 100	33.3	> 100	> 100	> 100	> 100	> 100	> 100	> 100	> 100	> 100	> 100	> 100	–	–
CSc1cc(C(C)(C)C)ccc1C(O)c1ccc(C(C)(C)C)cc1SC	–	26.2	–	39.3	–	31.4	–	30.5	–	29.9	–	33.9	–	27.3	–	–	–	25.8	–	18.6
CCc1ccccc1NC(=O)C(=O)C(C#N)c1c(Cl)cccc1Cl (stereo unspecified)	–	> 100	–	> 100	–	–	–	> 100	–	> 100	–	> 100	–	–	–	–	–	> 100	–	> 100
CNC(=O)NCCN1N=C(C)/C(=C\c2ccccc2)CC1=O	–	> 100	–	> 100	–	> 100	–	> 100	–	–	–	> 100	–	> 100	–	–	–	> 100	–	> 100
CCOP(=O)(OCC)C(NC(c1ccccc1)c1ccccc1)c1ccc(C(C)C)cc1 (stereo unspecified)	–	–	11.9	52	5.91	> 100	3.48	14.8	3.22	13.1	10.4	22.9	6.08	18.8	8.41	25.5	4.8	17.2	7.45	28.9

Compound	GI50 [1] [µM]	TGI [1] [µM]	GI50 [2] [µM]	TGI [2] [µM]	GI50 [3] [µM]	TGI [3] [µM]	GI50 [4] [µM]	TGI [4] [µM]	GI50 [5] [µM]	TGI [5] [µM]	GI50 [6] [µM]	TGI [6] [µM]	GI50 [7] [µM]	TGI [7] [µM]	GI50 [8] [µM]	TGI [8] [µM]	GI50 [9] [µM]	TGI [9] [µM]	GI50 [10] [µM]	TGI [10] [µM]
O=C(c1ccc(Nc2nccc(NCCCCNc3ccnc4cc(Cl)ccc34)n2)cc1)N1CCCCC1	2.83	9.08	2.04	4.67	0.475	2.98	–	–	1.69	6.43	–	–	2.24	6.02	3.53	14.3	2.94	11	1.69	3.79
CCCCNCCCCCNc1cc(OC)cc2cccnc12	14.6	29.1	–	–	89.4	> 100	20.4	44.8	47.9	> 100	19.9	40.3	15.1	30.1	23.1	56.3	39.3	> 100	13.4	27.2
COc1cc(NCCC2CCCCN2)c2ncccc2c1OC (stereo unspecified)	–	–	11.7	24.8	10.5	24.8	–	–	21.2	85.5	2.24	6.19	17.3	32.4	13.1	26.9	14.9	33.5	14.9	36.7
O=C(Nc1cc2cc([N+](=O)[O-])ccc2oc1=O)c1cccs1	–	> 100	–	> 100	–	> 100	–	> 100	–	–	–	–	–	> 100	–	> 100	–	72.9	–	> 100
CCN(CC)CCCC(C)Nc1ccnc(/C=C/c2ccc(Cl)cc2)c1 (stereo unspecified)	–	9.47	–	3.41	–	7.49	–	–	–	6.35	–	3.69	–	4.11	–	17.6	–	7.39	–	3.17
CC[P+]1(c2ccccc2)CCCCC1	–	> 100	–	> 100	–	> 100	–	> 100	–	> 100	–	> 100	–	> 100	–	–	–	> 100	–	> 100
C=CCC1C(=O)CC2(C)C(CC=C)C(=O)CC12C (stereo unspecified)	–	> 100	–	> 100	–	> 100	–	> 100	–	> 100	–	> 100	–	> 100	–	–	–	> 100	–	> 100
O=C1CCc2ccc(O)c(c2)Oc2ccc(cc2)[C@@H]2O[C@@H]2CO1	–	50.5	–	> 100	–	–	–	> 100	–	–	–	> 100	–	> 100	–	–	–	> 100	–	> 100
CCN(CC)CCCNc1cc(OC)c(OC)c2cccnc12	–	–	15.7	32.9	1.47	16.9	5.22	> 100	14.1	49.8	3.16	28.7	2.04	21.4	15.9	33.4	13	31	14.1	> 100
Cc1ccc(/C(=C/C=C(C#N)C#N)Sc2nc3ccccc3s2)cc1	4.78	29.8	5.14	23.9	18.3	75.3	6.25	> 100	–	–	2.6	6.22	10.1	30.3	4.18	14.5	4.72	28.9	3.41	22.5
N#CC1=C(c2ccccc2)OC2(N)OC(c3ccccc3)=C(C#N)C12C#N (stereo unspecified)	–	> 100	–	> 100	–	> 100	–	> 100	–	> 100	–	> 100	–	> 100	–	–	–	> 100	–	> 100
Oc1ccc(/C=N/NC(=S)Nc2cccnc2)nc1	–	> 100	–	> 100	–	–	–	> 23.1	–	> 100	–	29.3	–	> 100	–	> 89.4	–	> 100	–	> 26.9
CN(C)CCNC(=O)c1cccc2c1nc(-c1ccncc1)c1ccccc12	–	20.1	–	17.6	–	3.05	–	> 100	–	13.4	–	6.44	–	19.5	–	–	–	25.6	–	6.08
C/C(=N\NC(=S)N1CCN(c2ccccn2)CC1)c1cccc2cccnc12	–	> 100	–	> 100	–	> 100	–	> 100	–	> 100	–	27.8	–	> 100	–	–	–	> 100	–	> 56.5
O=C(OCc1ccccc1)n1cccc1	–	> 100	–	> 100	–	> 100	–	> 100	–	–	–	> 100	–	> 100	–	–	–	> 100	–	> 100
CCOC(=O)CCn1cnc(N)n1	–	> 100	–	> 100	–	> 100	–	> 100	–	> 100	–	> 100	–	> 100	–	–	–	> 100	–	> 100
Cc1ccc(NC(=O)CCC(=O)C2Cc3ccccc3C2=O)cc1C (stereo unspecified)	–	> 100	–	> 100	–	> 100	–	> 100	–	> 100	–	> 100	–	> 100	–	–	–	> 100	–	> 100
Oc1cc(O)c2c(c1)OC(c1ccc(O)c(O)c1)C(O)C2c1c(O)cc(O)c2c1OC(c1ccc(O)c(O)c1)C(O)C2 (stereo unspecified)	–	> 100	–	> 100	–	> 100	–	–	–	> 100	–	> 100	–	> 100	–	> 100	–	> 100	–	> 100
